Measured values reported in patent US10626144B2, “Peptide derivatives and uses thereof” (Nosopharm, priority 2014, dated 2020).
Read-outs that look alike come from different tables or passages of the source. Numbered stars: 1 amine (or outer) side, 2 acyl side, 3 side chain; on linkers, the order of the positions; unused ones are H or OH. Square brackets hold non-standard residues; d marks the D form. Peptide text beside a SMILES is read from it. * marks the point of attachment. Dab(3S-OH) = NC[C@H](O)[C@H](N)C(=O)O; Gly(cPent) = N[C@H](C(=O)O)C1CCCC1; ΔZArg = N=C(N)NCC/C=C(\N)C(=O)O; Lys(Me) = CNCCCC[C@H](N)C(=O)O; AllylGly = C=CC[C@H](N)C(=O)O; NMeK = CN[C@@H](CCCCN)C(=O)O; X2 = CC=C(N[*:1])C(=O)[*:2]; dOrn = NCCC[C@@H](N)C(=O)O; hSer = N[C@@H](CCO)C(=O)O; Pra = C#CC[C@H](N)C(=O)O; Dab = NCC[C@H](N)C(=O)O; Dap = NC[C@H](N)C(=O)O; NH(CH2)4NH2 = NCCCCN*

Legend:
[1] = system: Escherichia coli ATCC 25922; test: MIC, broth microdilution (CLSI), reference strain; conditions: CAMHB
[2] = system: Acinetobacter baumannii ATCC 19606; test: MIC, broth microdilution (CLSI), reference strain; conditions: CAMHB
[3] = system: Pseudomonas aeruginosa ATCC 27853; test: MIC, broth microdilution (CLSI), reference strain; conditions: CAMHB
[4] = system: Staphylococcus aureus ATCC 13709; test: MIC, broth microdilution (CLSI), reference strain; conditions: CAMHB
[5] = target: N-type calcium channels (Cav2.2) (Rattus norvegicus (Rat), UniProt Q02294); test: biochemical; type: binding
[6] = class symbol, rat cerebral cortex, [125I]ω-conotoxin GVIA 0.001 nM, 30 minutes at room temperature, read-out: IC50 Cav2.2
[7] = value in brackets, rat cerebral cortex, [125I]ω-conotoxin GVIA 0.001 nM, read-out: IC50 Cav2.2

| Compound | Ec: MIC Escherichia coli ATCC 25922 [1] | Ab: MIC Acinetobacter baumannii ATCC 19606 [2] | Pa: MIC Pseudomonas aeruginosa ATCC 27853 [3] | Sa: MIC Staphylococcus aureus ATCC 13709 [4] | IC50 [5, 6] | IC50 [5] | IC50 [5, 7] |
| --- | --- | --- | --- | --- | --- | --- | --- |
| N=C(N)NCC/C=C(\NC(=O)[C@H](CCCCN)NC(=O)[C@H](Cc1cnc[nH]1)NC(=O)[C@@H]1CCCN1C(=O)[C@@H](CCCN)NC(=O)CNC(=O)[C@H](CCN)NC(=O)[C@@H](NC(=O)[C@@H](N)CCCCN)[C@@H](O)CN)C(=O)N[C@@H](CCCCN)C(=O)NCCCCN [21.1] (H-K[Dab(3S-OH)][Dab]G[dOrn]PHK[ΔZArg]K-{NH(CH2)4NH2}) | ++ (≤8 μg/mL) | ++ (≤8 μg/mL) | ++ (≤8 μg/mL) | ++ (≤8 μg/mL) | < 30 nM | – | – |
| CN[C@@H](CCCCN)C(=O)N[C@H](C(=O)N[C@H](C(=O)NCC(=O)N[C@H](CCCN)C(=O)N1CCC[C@H]1C(=O)N[C@@H](Cc1cnc[nH]1)C(=O)N[C@@H](CCCCN)C(=O)N/C(=C\CCNC(=N)N)C(=O)N[C@@H](CCCCN)C(=O)NCCCCN)[C@@H](O)CN)[C@@H](O)CN [22.3] (H-[NMeK][Dab(3S-OH)][Dab(3S-OH)]G[dOrn]PHK[ΔZArg]K-{NH(CH2)4NH2}) | ++ (≤8 μg/mL) | + (≤32 μg/mL) | + (≤32 μg/mL) | ++ (≤8 μg/mL) | < 30 nM | – | – |
| C[C@H](NC(=O)[C@@H]1CCCN1C(=O)[C@@H](CCCN)NC(=O)CNC(=O)[C@@H](NC(=O)[C@@H](NC(=O)[C@@H](N)CCCCN)[C@@H](O)CN)[C@@H](O)CN)C(=O)N[C@@H](CCCCN)C(=O)N/C(=C\CCNC(=N)N)C(=O)N[C@@H](CCCCN)C(=O)NCCCCN [22.4] (H-K[Dab(3S-OH)][Dab(3S-OH)]G[dOrn]PAK[ΔZArg]K-{NH(CH2)4NH2}) | ++ (≤8 μg/mL) | − (>32 μg/mL) | + (≤32 μg/mL) | ++ (≤8 μg/mL) | < 30 nM | – | – |
| N=C(N)NCCC[C@@H](NC(=O)[C@H](CCCCN)NC(=O)[C@H](Cc1cnc[nH]1)NC(=O)[C@@H]1CCCN1C(=O)[C@@H](CCCN)NC(=O)CNC(=O)[C@@H](NC(=O)[C@@H](NC(=O)[C@@H](N)CCCCN)[C@@H](O)CN)[C@@H](O)CN)C(=O)N[C@@H](CCCCN)C(=O)NCCCCN [22.5] (H-K[Dab(3S-OH)][Dab(3S-OH)]G[dOrn]PHK[dR]K-{NH(CH2)4NH2}) | + (≤32 μg/mL) | − (>32 μg/mL) | + (≤32 μg/mL) | ++ (≤8 μg/mL) | < 30 nM | – | – |
| CC=C(NC(=O)[C@H](CCCCN)NC(=O)[C@H](Cc1cnc[nH]1)NC(=O)[C@@H]1CCCN1C(=O)[C@@H](CCCN)NC(=O)CNC(=O)[C@@H](NC(=O)[C@@H](NC(=O)[C@@H](N)CCCCN)[C@@H](O)CN)[C@@H](O)CN)C(=O)N[C@@H](CCCCN)C(=O)NCCCCN [22.15] (H-K[Dab(3S-OH)][Dab(3S-OH)]G[dOrn]PHK[X2]K-{NH(CH2)4NH2}) | + (≤32 μg/mL) | − (>32 μg/mL) | − (>32 μg/mL) | ++ (≤8 μg/mL) | – | < 30 nM | 4 nM |
| C[C@H](N)C(=O)N[C@H](C(=O)N[C@H](C(=O)NCC(=O)N[C@H](CCCN)C(=O)N1CCC[C@H]1C(=O)N[C@@H](Cc1cnc[nH]1)C(=O)N[C@@H](CCCCN)C(=O)N/C(=C\CCNC(=N)N)C(=O)N[C@@H](CCCCN)C(=O)NCCCCN)[C@@H](O)CN)[C@@H](O)CN [22.16] (H-A[Dab(3S-OH)][Dab(3S-OH)]G[dOrn]PHK[ΔZArg]K-{NH(CH2)4NH2}) | + (≤32 μg/mL) | − (>32 μg/mL) | − (>32 μg/mL) | ++ (≤8 μg/mL) | < 30 nM | – | – |
| N=C(N)NCC/C=C(\NC(=O)[C@H](CCCCN)NC(=O)[C@H](Cc1cnc[nH]1)NC(=O)[C@@H]1CCCN1C(=O)[C@@H](CCCN)NC(=O)CNC(=O)[C@H](CCCCN)NC(=O)[C@@H](NC(=O)[C@@H](N)CCCCN)[C@@H](O)CN)C(=O)O [215.1] (H-K[Dab(3S-OH)]KG[dOrn]PHK[ΔZArg]-OH) | + (≤32 μg/mL) | − (>32 μg/mL) | − (>32 μg/mL) | ++ (≤8 μg/mL) | – | – | – |
| CNCCCC[C@H](NC(=O)[C@@H](NC(=O)[C@@H](N)CCCCN)[C@@H](O)CN)C(=O)NCC(=O)N[C@H](CCCN)C(=O)N1CCC[C@H]1C(=O)N[C@@H](Cc1cnc[nH]1)C(=O)N[C@@H](CCCCN)C(=O)N/C(=C\CCNC(=N)N)C(N)=O [215.2] (H-K[Dab(3S-OH)][Lys(Me)]G[dOrn]PHK[ΔZArg]-NH2) | ++ (≤8 μg/mL) | − (>32 μg/mL) | − (>32 μg/mL) | ++ (≤8 μg/mL) | – | – | – |
| C=CC[C@H](NC(=O)[C@@H](NC(=O)[C@@H](N)CCCCN)[C@@H](O)CN)C(=O)NCC(=O)N[C@H](CCCN)C(=O)N1CCC[C@H]1C(=O)N[C@@H](Cc1cnc[nH]1)C(=O)N[C@@H](CCCCN)C(=O)N/C(=C\CCNC(=N)N)C(=O)O [216.1] (H-K[Dab(3S-OH)][AllylGly]G[dOrn]PHK[ΔZArg]-OH) | − (>32 μg/mL) | − (>32 μg/mL) | − (>32 μg/mL) | + (≤32 μg/mL) | – | – | – |
| N=C(N)NCC/C=C(\NC(=O)[C@H](CCCCN)NC(=O)[C@H](Cc1cnc[nH]1)NC(=O)[C@@H]1CCCN1C(=O)[C@@H](CCCN)NC(=O)CNC(=O)[C@H](CCCNC(=N)N)NC(=O)[C@@H](NC(=O)[C@@H](N)CCCCN)[C@@H](O)CN)C(N)=O [217.1] (H-K[Dab(3S-OH)]RG[dOrn]PHK[ΔZArg]-NH2) | ++ (≤8 μg/mL) | − (>32 μg/mL) | − (>32 μg/mL) | ++ (≤8 μg/mL) | – | – | – |
| N=C(N)NCC/C=C(\NC(=O)[C@H](CCCCN)NC(=O)[C@H](Cc1cnc[nH]1)NC(=O)[C@@H]1CCCN1C(=O)[C@@H](CCCN)NC(=O)CNC(=O)[C@@H](NC(=O)[C@@H](NC(=O)[C@@H](N)CCCCN)[C@@H](O)CN)C1CCCC1)C(N)=O [220.1] (H-K[Dab(3S-OH)][Gly(cPent)]G[dOrn]PHK[ΔZArg]-NH2) | + (≤32 μg/mL) | − (>32 μg/mL) | − (>32 μg/mL) | ++ (≤8 μg/mL) | – | – | – |
| N=C(N)NCC/C=C(\NC(=O)[C@H](CCCCN)NC(=O)[C@H](Cc1cnc[nH]1)NC(=O)[C@@H]1CCCN1C(=O)[C@@H](CCCN)NC(=O)CNC(=O)[C@H](CN)NC(=O)[C@@H](NC(=O)[C@@H](N)CCCCN)[C@@H](O)CN)C(=O)O [221.1] (H-K[Dab(3S-OH)][Dap]G[dOrn]PHK[ΔZArg]-OH) | − (>32 μg/mL) | − (>32 μg/mL) | − (>32 μg/mL) | + (≤32 μg/mL) | – | – | – |
| N=C(N)NCC/C=C(\NC(=O)[C@H](CCCCN)NC(=O)[C@H](Cc1cnc[nH]1)NC(=O)[C@@H]1CCCN1C(=O)[C@@H](CCCN)NC(=O)CNC(=O)[C@H](CCC(N)=O)NC(=O)[C@@H](NC(=O)[C@@H](N)CCCCN)[C@@H](O)CN)C(N)=O [222.1] (H-K[Dab(3S-OH)]QG[dOrn]PHK[ΔZArg]-NH2) | − (>32 μg/mL) | − (>32 μg/mL) | − (>32 μg/mL) | + (≤32 μg/mL) | – | – | – |
| C#CC[C@H](NC(=O)[C@@H](NC(=O)[C@@H](N)CCCCN)[C@@H](O)CN)C(=O)NCC(=O)N[C@H](CCCN)C(=O)N1CCC[C@H]1C(=O)N[C@@H](Cc1cnc[nH]1)C(=O)N[C@@H](CCCCN)C(=O)N/C(=C\CCNC(=N)N)C(=O)O [223.1] (H-K[Dab(3S-OH)][Pra]G[dOrn]PHK[ΔZArg]-OH) | + (≤32 μg/mL) | − (>32 μg/mL) | − (>32 μg/mL) | + (≤32 μg/mL) | – | – | – |
| N=C(N)NCC/C=C(\NC(=O)[C@H](CCCCN)NC(=O)[C@H](Cc1c[nH]cn1)NC(=O)[C@@H]1CCCN1C(=O)[C@@H](CCCN)NC(=O)CNC(=O)[C@H](CCO)NC(=O)[C@@H](NC(=O)[C@@H](N)CCCCN)[C@@H](O)CN)C(=O)O [225.1] (H-K[Dab(3S-OH)][hSer]G[dOrn]PHK[ΔZArg]-OH) | − (>32 μg/mL) | − (>32 μg/mL) | − (>32 μg/mL) | + (≤32 μg/mL) | – | – | – |
| N=C(N)NCC/C=C(\NC(=O)[C@H](CCCCN)NC(=O)[C@H](Cc1c[nH]cn1)NC(=O)[C@@H]1CCCN1C(=O)[C@@H](CCCN)NC(=O)CNC(=O)[C@@H](NC(=O)[C@@H](NC(=O)[C@@H](N)CCCCN)[C@@H](O)CN)[C@@H](O)CN)C(=O)N[C@@H](CCCCN)C(=O)NCCCCN [Odilomycin C, reference compound] (H-K[Dab(3S-OH)][Dab(3S-OH)]G[dOrn]PHK[ΔZArg]K-{NH(CH2)4NH2}; N-terminus and C-terminus assumed) | – | – | – | – | < 30 nM | – | 9 nM |
